Read-outs that look alike come from different tables or passages of the source.
What was measured:
[1] = tested on: −1 PRF in SARS-CoV-2; details: prior art statement; cited from earlier work
[2] = tested on: SARS-CoV-2; assay: Viral plaque assay, SARS-CoV-2 in Vero E6 cells; format: cell-based; details: Severe acute respiratory syndrome coronavirus 2, Vero C1008
[3] = tested on: −1 PRF of WNV; format: cell-based, west nile virus (WNV)
[4] = tested on: −1 PRF of human PEG10 mRNA; format: cell-based
[5] = tested on: −1 PRF of HCoV-HKU1; assay: cells; format: cell-based; details: read-out: IC50 of −1 PRF inhibition, HCoV-HKU1
[6] = tested on: −1 PRF of HCoV-OC43; assay: microbe, parasite or virus in culture; format: cell-based; details: Betacoronavirus 1, OC43, read-out: IC50 of −1 PRF inhibition, HCoV-OC43
[7] = tested on: HEK293T cells; details: HEK293T (FIG. 2N)
[8] = tested on: −1 PRF of hCoV-NL63; format: cell-based; details: 20 μM merafloxacin (FIG. 2E)
[9] = tested on: HEK293T cells; assay: Cell viability in the high-throughput screen (cell nuclei numbers)
Procedure: HEK293T cells were plated in 384 well plates at the density of 5,000 cells/well. Cells were treated by 10 μM candidate compounds 30 min before transfection of 15 ng mCherry-FSE-GFP(−1) plasmid DNA in each well. 24 hours after transfection, cell nuclei were stained with Hoechst dye. Cell nuclei, mCherry, and GFP signals were imaged using an automated fluorescent microscope with a 10x objective, and the acquired images were quantified using the CellProfiler image analysis package. Cell nuclei numbers were quantified as the metric for cell viability. Mean GFP and RFP intensity values were measured in all transfected cells, and GFP/mCherry mean intensity ratios were quantified as the metric for PRF efficiency. The mCherry-GFP fusion plasmid and the mCherry-FSE-GFP(0) plasmid were used as positive and negative controls for elevated and reduced GFP/mCherry ratios, respectively.

[10] = tested on: −1 PRF of hCoV-229E; format: cell-based; details: 20 μM merafloxacin (FIG. 2E)
[11] = tested on: −1 PRF of SARS-CoV; assay: microbe, parasite or virus in culture; format: cell-based; details: Severe acute respiratory syndrome coronavirus, read-out: IC50 of −1 PRF inhibition, SARS-CoV
[12] = tested on: Vero E6 cells; details: Vero E6 cells (FIG. 6B)
[13] = tested on: −1 PRF of EAV; format: cell-based, equine arteritis virus (EAV)
[14] = tested on: SARS-CoV-2 nsp12 / nsp8; format: cell-based
[15] = tested on: two-stem pseudoknot FSE of IBV; format: cell-based, avian coronavirus infectious bronchitis virus (IBV); details: 20 μM merafloxacin (FIG. 2E)
[16] = tested on: HEK293T cells; format: cell-based
[17] = tested on: HIV-1 (NL4-3-dNef-GFP); assay: HIV-1 antiviral assay in Jurkat T cells; format: cell-based; details: Jurkat T cells (FIG. 7)
[18] = tested on: −1 PRF of HIV-1; format: cell-based, human immunodeficiency virus 1 (HIV-1)
[19] = tested on: HCoV-OC43; assay: Viral plaque assay, HCoV-OC43 in MA104 cells; format: cell-based; details: MA104 cells (FIGS. 6G-6H)
Procedure: Plaque formation assays for SARS-CoV-2, HCoV-229E, and HCoV-OC43 were performed in Vero E6, HuH-7.5, and MA104 cells (ATCC), respectively. Briefly, cells were seeded at 2-4×10^5 cells/well in 12-well plates. The following day, cells were incubated with viral stock (multiplicity of infection [MOI]=0.05) for 1 h and washed twice with PBS. Merafloxacin diluted in DMSO was added to the media, mixed briefly, and incubated at 37° C. After 2 d, media were collected, centrifuged, and supernatants were stored at −80° C. To quantify viral titers, the collected media were first serially diluted 10-fold with fresh media. Two hundred microliters of each dilution were added to near-confluent cells in six-well plates and incubated at 37° C. for 1 h with gentle rocking. Subsequently, overlay media (DMEM, 2% FBS, 0.6% Avicel RC-581) was added to each well. After 3 d, cells were fixed with 10% formaldehyde for 30 min, stained with crystal violet for 30 min, and rinsed with deionized water to visualize plaques.

[20] = tested on: −1 PRF of SARS-CoV-2; assay: microbe, parasite or virus in culture; format: cell-based; details: for validated effect on −1 PRF in dual luciferase-based PRF reporter assay: repurchased screen candidates
[21] = tested on: SARS-CoV-2 FSE (−1 PRF); assay: cells; format: cell-based
[22] = 10 μM compound, cell nuclei numbers
[23] = Severe acute respiratory syndrome coronavirus 2, HEK-293T, 24 h; read-out: PERCENT EFFECT 2 (Decreased GFP/Red ratio)
[24] = Severe acute respiratory syndrome coronavirus 2, HEK-293T, 24 h; read-out: PERCENT EFFECT (Increased GFP/Red Ratio)

## CCOC(=O)c1ccccc1NC(=O)N1CCCN(Cc2csc(C)n2)CC1 [MTDB]
[1]
  inhibition of −1 PRF in SARS-CoV-2 reporter assays: inhibit −1 PRF

## CCNCC1CCN(c2c(F)cc3c(=O)c(C(=O)O)cn(CC)c3c2F)C1 (stereo not drawn) [merafloxacin, 1-ethyl-7-[3-(ethylaminomethyl)pyrrolidin-1-yl]-6,8-difluoro-4-oxoquinoline-3-carboxylic acid]
[2]; read-out: EC50 of SARS-CoV-2 replication
  EC50: 2.6 µM
[2]; read-out: EC90 of SARS-CoV-2 replication
  EC90: 12 µM
[3]
  inhibition of −1 PRF of WNV: did not inhibit
[4]
  inhibition of −1 PRF of human PEG10 mRNA: did not inhibit
[5]
  IC50: 30 µM
[6]
  IC50: 39 µM
[7]
  effect on cell viability: did not affect
[8]
  activity against −1 PRF of hCoV-NL63: much weaker activity
[9]; [22]
  PERCENT VIABILITY: 168.57%
[10]
  activity against −1 PRF of hCoV-229E: much weaker activity
[11]
  IC50: ~20 µM
[12]
  cytotoxicity: without causing substantial cytotoxicity
[13]
  inhibition of −1 PRF of EAV: did not inhibit
[14]
  relative abundance between nsp12 and nsp8: substantially reduced
[15]
  sensitivity of IBV FSE: largely insensitive
[16]; 20 μM merafloxacin (FIG. 2F)
  effect on upstream FLuc translation: did not affect
[16]; 80 μM merafloxacin (FIG. 2H)
  effect on ribosome association of the reporter mRNA: did not affect
[16]; 80 μM merafloxacin for 24 hours (FIG. 2G)
  effect on global translation (polysome profiles): did not affect
[16]; FIG. 2M
  effect on reporter mRNA abundance: did not affect
[17]
  antiviral activity against an HIV-1 reporter virus: no antiviral activity
[18]
  inhibition of −1 PRF of HIV-1: did not inhibit
[19]
  antiviral activity against HCoV-OC43: showed antiviral activity
[20]; Severe acute respiratory syndrome coronavirus 2, dose-dependent, FIG. 2C, read-out: IC50 of −1 PRF inhibition, SARS-CoV-2
  IC50: ~20 µM
[20]; in vitro transcribed RNAs (FIG. 2O)
  −1 PRF of in vitro-transcribed SARS-CoV-2 reporter mRNAs: inhibited
[20]
  validated effect on −1 PRF in dual luciferase-based PRF reporter assay: inhibitor
[21]; [23]
  inhibition at 10 µM: 25%
[21]; [24]
  activation at 10 µM: -13%

## NCCCNc1ccc2c3c(nn2CCNCCO)-c2c(O)ccc(O)c2C(=O)c13 [piroxantrone, 5-(AMINO-PR-AMINO)-DI-HO-2-(2-(HO-ET-AMINO)-ET)-2H-DIBENZO(CD,G)INDAZOL-ONE]
[9]; [22]
  PERCENT VIABILITY: 91.45%
[21]; [23]
  inhibition at 10 µM: 88.7%
[21]; [24]
  activation at 10 µM: -43.5%

## COc1ccc(C[C@H](N)C(=O)NC2[C@@H](O)[C@H](n3cnc4c(N(C)C)ncnc43)O[C@@H]2CO)cc1 (stereo partly drawn) [puromycin, (2S)-2-amino-N-[(2S,4R,5R)-5-(6-dimethylaminopurin-9-yl)-4-hydroxy-2-(hydroxymethyl)oxolan-3-yl]-3-(4-methoxyphenyl)propanamide]
[9]; [22]
  PERCENT VIABILITY: 26.1%
[9]; 10 μM compound, cell nuclei numbers, listed as Puromycin
  PERCENT VIABILITY: 49.7%
[21]; [24]
  activation at 10 µM: 18.9%

## Cc1cc2nc3c(=O)[nH]c(=O)nc-3n(CC(O)C(O)C(O)CO)c2cc1C (stereo not drawn) [riboflavin, 7,8-dimethyl-10-(2,3,4,5-tetrahydroxypentyl)benzo[g]pteridine-2,4-dione]
[9]; [22]
  PERCENT VIABILITY: 187.1%
[21]; [23]
  inhibition at 10 µM: -40%
[21]; [24]
  activation at 10 µM: 19.6%

## O=C(Nc1cccc(C(F)(F)F)c1)c1ccccc1O [salfluverine, 2-hydroxy-N-[3-(trifluoromethyl)phenyl]benzamide]
[9]; [22]
  PERCENT VIABILITY: 133.5%
[21]; [23]
  inhibition at 10 µM: -40.2%
[21]; [24]
  activation at 10 µM: 18.9%

## Clc1ccc(C(Cn2ccnc2)OCc2ccsc2Cl)c(Cl)c1 (stereo not drawn) [tioconazole]
[9]; human
  PERCENT VIABILITY: 99.7%
[21]; Severe acute respiratory syndrome coronavirus 2, HEK-293T, 24 h, read-out: PERCENT EFFECT 2 (Decreased GFP/Red ratio)
  inhibition at 10 µM: -51.1%
[21]; Severe acute respiratory syndrome coronavirus 2, HEK-293T, 24 h, read-out: PERCENT EFFECT (Increased GFP/Red Ratio)
  activation at 10 µM: 26.7%

## N[C@@H]1[C@H]2CN(c3nc4c(cc3F)c(=O)c(C(=O)O)cn4-c3ccc(F)cc3F)C[C@@H]12 [trovafloxacin]
[20]; final concentration of 20 μM (FIGS. 3A and 3B)
  activity on SARS-CoV-2 PRF efficiency, compared with merafloxacin: less active

## O=C(CCCCCCC(=O)Nc1ccccc1)NO [vorinostat]
[9]; [22]
  PERCENT VIABILITY: 20.6%
[21]; [23]
  inhibition at 10 µM: -28.8%
[21]; [24]
  activation at 10 µM: 15.2%

## GRAMICIDIN [GRAMICIDIN (gramicidin A shown), Chem. Abs]
[9]; [22]
  PERCENT VIABILITY: 3.3%
[9]; 10 μM compound, cell nuclei numbers, listed as gramicidin
  PERCENT VIABILITY: 10.1%
[21]
  PERCENT EFFECT 2 (Decreased GFP/Red ratio): −29.0%
  PERCENT EFFECT (Increased GFP/Red Ratio): 15.0%
[21]; listed as gramicidin
  PERCENT EFFECT 2 (Decreased GFP/Red ratio): −38.6%
  PERCENT EFFECT (Increased GFP/Red Ratio): 18.9%

## IVERMECTIN
[9]; [22]
  PERCENT VIABILITY: 223.0%
[20]
  validated effect on −1 PRF in dual luciferase-based PRF reporter assay: enhancer
[21]
  PERCENT EFFECT 2 (Decreased GFP/Red ratio): −36.2%
  PERCENT EFFECT (Increased GFP/Red Ratio): 15.8%
